{"source": "patent US10857128B2", "about": "“Methods and compositions for treating inflammatory diseases” (Helmholtz Zentrum München Deutsches Forschungszentrum für …, priority 2017, dated 2020)", "key": {"[1]": {"test_system": "costimulatory molecules of LPS-stimulated human dendritic cells", "test": "Costimulatory molecules on LPS-stimulated human monocyte-derived dendritic cells (flow cytometry)", "assay_type": "cell-based", "conditions": "Dendritic cell, 24 h, LPS 0.1 μg/ml, D-amino acid 10 μM, mean ± SD of three experiments, relative to LPS-induced expression", "method": "Generation of human monocyte-derived dendritic cells. Peripheral venous blood was obtained from healthy volunteers aged between 20 and 50 years after informed consent. Individuals with allergic disease, acute infection or taking any medication 20 days prior to blood sampling or any history of smoking (personal interview) were excluded prior to blood sampling. All experiments were conducted according to the principles expressed in the Declaration of Helsinki.\n(§1) Peripheral blood mononuclear cells (PBMC) were isolated from heparinized whole blood by density gradient centrifugation (2000 rpm, 22° C., 20 min) (Biocoll, Biochrom AG, Berlin, Germany). […] Purity and viability of DCs was assessed by flow cytometry (FIG. 9A-C).\n(§2) Costimulatory molecules on human DCs. The following primary monoclonal antibodies were used: CD83 fluorescein isothiocyanate (FITC); CD1a phycoerythrin (PE); CD86-FITC; CD80-PE; CD14 allophycocyanine (APC); CD40-APC; CD3-peridinin chlorophyll protein (PerCP); HLA-DR-PerCP; mouse immunoglobulins G1 (IgG1) mouse immunoglobulins G1 (IgG1) κ were used as isotype controls using the corresponding fluorochromes (all purchased from BD Biosciences, Heidelberg, Germany). To account for donor dependent variability of DC surface markers, all data were normalized to the expression induced by LPS which was set to 100% after subtraction of background values (FACS Canto, FACS DIVA software, Version 5.0.3, BD Biosciences, Heidelberg, Germany). Murine DC subsets and CD4^+ T cells. Single cell suspensions of splenocytes were obtained by filtering spleens through a 70 μm strainer. Samples were stained with CD3-PB (1:200, Biolegend, San Diego, USA), CD4-APC-H7 (BD, 1:400), CD11c-APC-Cy7 (1:100), Mhc-II-Percp-Cy5 (1:100), CD11b-FITC (1:100), CD80-AF647, CD40-APC (1:100). For intracellular cytokines, total spleen cells were stimulated with anti-CD3 (4 μg/mL, BD Bioscience, Heidelberg, Germany) and anti-CD28 (30 ng/mL, BD Bioscience, Heidelberg, Germany) for 16 h. 1×10^6 of total lung cells were stimulated for 16 h with MACSiBead particles coated with anti-CD3 and anti-CD28 using the T cell activation/expansion kit (Miltenyi Biotec, Bergisch Gladbach, Germany) in TexMACS medium (Miltenyi Biotec) according to the manufactures recommendations. Prior to staining, cells were treated with monensin (0.7 μL/mL, BD Golgi Stop, BD Bioscience, Heidelberg, Germany) for 6 h at 37° C. and intracellularly stained for II-4-PE (1:100, eBioscience, Vienna, Austria according to the manufacturer's protocols. Intracellular staining for Foxp3 was performed by using the Foxp3/Transcription Factor Staining buffer set (eBiosciences, Vienna, Austria) according to the manufacturer's recommendations.\nBioassays for screening for immune modulatory activity in probiotic supernatants. Two biological assays based on down-modulation of costimulatory molecules on human DCs, and of CCL17-secretion by a human Hodgkin lymphoma T cell line (KM-H2) were set up. Human immature DCs were matured with 0.1 μg/mL lipopolysaccharide (LPS) from E. coli (Sigma-Aldrich, St. Louis, USA) in the presence or absence of 200 μL bacteria free supernatants for 24 h followed by flow cytometric analysis of costimulatory molecules."}, "[2]": {"test_system": "allergic airway inflammation", "test": "Ovalbumin-induced allergic airway inflammation (AAI) in mice with oral D-tryptophan", "assay_type": "in vivo, Balb/c mice", "method": "Isolation of intestinal lamina propria cells. Total colons were excised from mice, removed from mesenteries, opened longitudinally and cut into 2 cm long pieces that were incubated for 30 min in 30 mM EDTA in PBS on ice and then shaken vigorously with PBS to remove epithelial cells. After further cutting into small pieces with sharp scissors these were digested at 37° C. in RMPI supplemented with 1 mg/mL collagenase D (Roche Diagnostics, Mannheim, Germany) and 10 mg/ml DNAse I (Sigma-Aldrich, St. Louis, USA). Cells were separated by a 40/80% (w/v) Percoll (GE Healthcare, Chalfont St. Giles, UK) density centrifugation step and washed prior to staining for flow cytometry analysis.\nas §2\nAssessment of cytokines by cytometric bead array. Levels of II4, II5 and II13 were analysed in BALF and cell culture supernatants using an enhanced cytometric bead array (eCBA, Fex Set Kits, BD Biosciences, Franklin Lakes, N.J., USA) according to the manufacturer's guidelines.\nMurine regulatory T cells. Cells were preincubated with Fc-Block (BD Bioscience, Heidelberg, Germany) for 5 min and stained for 20 min with the following antibodies: FITC-conjugated anti-CD3, Alexa-Fluor700-conjugated anti-CD4 and APC-eFluor780-conjugated CD45.2. For intracellular staining, cells were fixed and permeabilized with a commercially available fixation/permeabilization buffer (eBioscience, Vienna, Austria). LIVE/DEAD fixable Aqua dead stain kit (Invitrogen, Carlsbad, USA) was used prior to fixation. Intracellular staining was performed with PerCP-Cy5.5-conjugated anti-Foxp3 and Helios. Gates were set on live CD45^+CD3^+CD4^+ T cells. All antibodies were from eBioscience (Vienna, Austria). Cells were analyzed with a flow cytometer (Fortessa and LSRII, BD Bioscience, Heidelberg, Germany) and analyzed with Flowjo software (Flowjo LLC, Ashland, USA).\nInduction of allergic airway inflammation. […]"}, "human LPS treated DCs": {"test_system": "human LPS treated DCs", "test": "Cytokine secretion of human DCs (multiplex assay)", "assay_type": "cell-based", "conditions": "for IFN-g / IL-5 / IL-10 / IL-12: 200 μl supernatant or amino acid 10 μM, 14 h", "method": "as §1\n[…] For probiotic supernatants, blank CDM1 was used as medium control. […] IL-5, IFN-gamma, IL-12, and IL-10, were quantified by a multiplex assay (Milliplex Human Cytokine Immunoassay, Millipore GMbH Schalbach, Germany) as described by the manufacturer."}, "[3]": {"conditions": "AAI mice, 50 mM in drinking water"}}, "note": "Like-named read-outs stand apart in the source and are kept apart here."}
{"smiles": "N[C@H](Cc1c[nH]c2ccccc12)C(=O)O", "note": "[D-tryptophan]", "values": [{"measurement": "activity at 10 µM", "setting": "[1]; read-out: Percentage of CD40 expressing mature DCs", "result": "15.2 ± 6.5", "unit": "%"}, {"measurement": "activity at 10 µM", "setting": "[1]; read-out: Percentage of CD80 expressing mature DCs", "result": "12.1 ± 1.7", "unit": "%"}, {"measurement": "activity at 10 µM", "setting": "[1]; read-out: Percentage of CD83 expressing mature DCs", "result": "7.6 ± 3.3", "unit": "%"}, {"measurement": "activity at 10 µM", "setting": "[1]; read-out: Percentage of CD86 expressing mature DCs", "result": "24.1 ± 2.7", "unit": "%"}, {"measurement": "activity at 10 µM", "setting": "[1]; read-out: Percentage of HLA-DR expressing mature DCs", "result": "88.9 ± 3", "unit": "%"}, {"measurement": "Helios+ Treg (lung)", "setting": "[2]; [3]", "result": "significantly increased"}, {"measurement": "II-4 producing T cells (lung)", "setting": "[2]; [3]", "result": "reduced"}, {"measurement": "Ifn-g-producing Th1 cells (lung)", "setting": "[2]; [3]", "result": "not"}, {"measurement": "airway hyperreactivity to methacholine", "setting": "[2]; [3]", "result": "improved"}, {"measurement": "eosinophils in BALF", "setting": "[2]; [3]", "result": "reduction"}, {"measurement": "total Foxp3+ cells (lung)", "setting": "[2]; [3]", "result": "remained unchanged"}, {"measurement": "total BALF cells", "setting": "[2]; AAI mice, 50 mM in drinking water from 3 days before sensitization", "result": "lowered"}, {"measurement": "II-4 levels in BALF", "setting": "[2]; AAI mice, 50 mM in drinking water, (trend)", "result": "reduced"}, {"measurement": "frequency of Foxp3+ T cells in the colon", "setting": "[2]; supplemented AAI mice compared to non-supplemented AAI mice", "result": "locally increased"}, {"measurement": "IL-10 in DC cultures", "setting": "human LPS treated DCs; highly enriched DCs", "result": "strongly induced"}, {"measurement": "LPS-induced IFN-g, IL-12 and IL-5 in DC cultures", "setting": "human LPS treated DCs; highly enriched DCs", "result": "lowered"}, {"measurement": "Ratio IL-5/IFN-g", "setting": "human LPS treated DCs; with LPS 0.1 μg/ml", "result": 0.018}, {"measurement": "Ratio IL-10/IL-12", "setting": "human LPS treated DCs; with LPS 0.1 μg/ml", "result": 0.232}, {"measurement": "IFN-g", "setting": "human LPS treated DCs; with LPS 0.1 μg/ml", "result": 1129.50, "unit": "pg/mL"}, {"measurement": "IL-5", "setting": "human LPS treated DCs; with LPS 0.1 μg/ml", "result": 20.60, "unit": "pg/mL"}, {"measurement": "IL-10", "setting": "human LPS treated DCs; with LPS 0.1 μg/ml", "result": 202.50, "unit": "pg/mL"}, {"measurement": "IL-12", "setting": "human LPS treated DCs; with LPS 0.1 μg/ml", "result": 871.90, "unit": "pg/mL"}, {"measurement": "Ratio IL-5/IFN-g", "setting": "human LPS treated DCs; without LPS", "result": 0.470}, {"measurement": "Ratio IL-10/IL-12", "setting": "human LPS treated DCs; without LPS", "result": 0.690}, {"measurement": "IFN-g", "setting": "human LPS treated DCs; without LPS", "result": 21.90, "unit": "pg/mL"}, {"measurement": "IL-5", "setting": "human LPS treated DCs; without LPS", "result": 10.30, "unit": "pg/mL"}, {"measurement": "IL-10", "setting": "human LPS treated DCs; without LPS", "result": 56.90, "unit": "pg/mL"}, {"measurement": "IL-12", "setting": "human LPS treated DCs; without LPS", "result": 82.50, "unit": "pg/mL"}]}
